Measurements taken from US12122779B2, “Pyrrolo-pyridazine derivatives as muscarinic M1 receptor positive allosteric modulators” (SUVEN LIFE SCIENCES LIMITED, priority 2018, dated 2024).

Experiments:
Male Swiss mice = experiment: Effect on colonic transit; type: in vivo; conditions: doses of 1 and 3 mg/kg, p.o., carmine dye, 3 hours after dye
Procedure: Effect on Colonic Transit
Male Swiss mice of body weight ˜20-30 g were fasted for 16 hours with free access to water prior to the experiment. Mice were administrated example 1 or vehicle, 30 min after administration of 0.5 ml of carmine dye solution. Mice were sacrificed 3 hours after dye administration and the distance traveled by the dye from proximal colon was measured. Colonic transit was expressed as % colonic transit=100×(length of colon in which carmine moved/total length of colon).

[1] = target: T1, recombinant human Muscarinic M1 receptor (Homo sapiens, UniProt P11229); experiment: Allosteric potency EC50 for muscarinic M1 receptor, CHO pCRE-Luc reporter cell-based assay with EC20 of acetylcholine; conditions: CHO cells, luciferase activity, in presence of EC20 of acetylcholine, 4 hours
T1 sequence (P11229 1-460): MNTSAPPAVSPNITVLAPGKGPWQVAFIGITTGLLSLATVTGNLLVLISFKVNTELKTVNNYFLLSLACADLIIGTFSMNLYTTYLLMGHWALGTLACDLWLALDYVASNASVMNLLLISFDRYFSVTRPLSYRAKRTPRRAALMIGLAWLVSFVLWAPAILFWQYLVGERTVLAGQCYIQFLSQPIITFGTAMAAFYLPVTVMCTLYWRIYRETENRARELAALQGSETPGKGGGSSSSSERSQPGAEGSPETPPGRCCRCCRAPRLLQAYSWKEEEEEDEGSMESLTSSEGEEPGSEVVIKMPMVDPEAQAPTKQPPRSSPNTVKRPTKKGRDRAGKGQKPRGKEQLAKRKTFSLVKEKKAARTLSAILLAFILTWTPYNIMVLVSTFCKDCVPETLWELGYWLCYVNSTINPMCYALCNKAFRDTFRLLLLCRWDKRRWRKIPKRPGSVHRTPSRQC
Procedure: Determination of Allosteric Potency EC50 Values for Muscarinic M1 Receptor
A stable CHO cell line expressing recombinant human Muscarinic M1 receptor and pCRE-Luc reporter system was used for cell-based assay. The assay offers a non-radioactive based approach to determine binding of a compound to GPCRs. In this specific assay, the level of intracellular cyclic AMP which is modulated by activation or inhibition of the receptor is measured. The recombinant cells harbor luciferase reporter gene under the control of cyclic AMP response element.
The above cells were grown in 96 well clear bottom white plates in Hams F12 medium containing 10% fetal bovine serum (FBS). Prior to the addition of compounds or standard agonist, cells were serum starved overnight. Increasing concentrations of test compounds were added along with EC20 of acetylcholine in OptiMEM medium to the cells. The incubation was continued at 37° C. in CO2 incubator for 4 hours. Medium was removed and cells were washed with phosphate buffered saline. The cells were lysed and luciferase activity was measured in a Luminometer. Luminescence units were plotted against the compound concentrations using Graphpad software.

[2] = Rodent brain penetration study; type: in vivo, Male Wistar rats; conditions: male, Wistar, brain and plasma, po; rat, 3 mg/kg p.o., brain-plasma ratio; read-out: Single dose Rat Brain Penetration (Cb/Cp) at 3 mg/kg, p.o.
Procedure: Rodent Brain Penetration Study
Male Wistar rats (260±40 grams) were used as experimental animals. Three animals were housed in each cage. Animals were given water and food ad libitum throughout the experiment and maintained on a 12 h light/dark cycle.
Brain penetration was determined in discrete manner in rats. One day prior to dosing day, male Wistar rats were acclimatized and randomly grouped according to their weight. At each time point (0.50, 1 and 2 h) n=3 animals were used.
The test compounds were suitably preformulated and administered orally at (free base equivalent) 3 mg/kg. Blood samples were removed via cardiac puncture by using isoflurane anesthesia. The animals were sacrificed to collect brain tissue. Plasma was separated and brain samples were homogenized and stored frozen at −20° C. until analysis. The concentrations of the test compounds in plasma and brain were determined using LC-MS/MS method.
The test compounds were quantified in plasma and brain homogenate by qualified LC-MS/MS method using suitable extraction technique. The test compounds were quantified in the calibration range of 1-500 ng/mL in plasma and brain homogenate. Study samples were analyzed using calibration samples in the batch and quality control samples spread across the batch. Extent of brain-plasma ratio (Cb/Cp) was calculated.

[3] = Rodent pharmacokinetic study; type: in vivo, Male Wistar rats; conditions: male, Wistar, plasma, rat
Procedure: Rodent Pharmacokinetic Study
Male Wistar rats (260±50 grams) were used as experimental animals. Animals were housed individually in polypropylene cage. Two days prior to study, male Wistar rats were anesthetized with isoflurane for surgical placement of jugular vein catheter. Rats were randomly divided for oral (3 mg/kg) and intravenous (1 mg/kg) dosing (n=3/group) and fasted overnight before oral dosing (p.o.). However, rats allocated to intravenous dosing food and water was provided ad libitum.
At pre-determined point, blood was collected through jugular vein and replenished with an equivalent volume of normal saline. Collected blood was transferred into a labeled eppendorf tube containing 10 μL of heparin as an anticoagulant. Typically blood samples were collected at following time points: 0.08, 0.25, 0.5, 1, 2, 4, 6, 8, and 24 h post dose. Blood was centrifuged at 4000 rpm for 10 minutes. Plasma was separated and stored frozen at −80° C. until analysis. The concentrations of the test compounds were quantified in plasma by qualified LC-MS/MS method using suitable extraction technique. The test compounds were quantified in the calibration range around 1-1000 ng/mL in plasma. Study samples were analyzed using calibration samples in the batch and quality control samples spread across the batch.
Pharmacokinetic parameters Cmax, AUCt, T1/2, Clearance and Bioavailability (F) were calculated by non-compartmental model using standard non-compartmental model by using Phoenix WinNonlin 6.0.4 version Software package.

Structure (SMILES): Cn1cc(-c2ccc(Cc3cc(C(=O)N[C@H]4CCOC[C@@H]4O)nn4cccc34)cc2)cn1 (stereo in doubt) [Example 38, N-[3-Hydroxy-tetrahydropyran-4-yl] 4-[4-(1-methyl-1H-pyrazol-4-yl)-benzyl]-pyrrolo[1,2-b]pyridazine-2-carboxamide]
- Colonic transit (Male Swiss mice): increased the colonic transit
- EC50 [1]: 692 nM
- Kp [2]: 0.15 ± 0.02
- AUC(0-t) ([3]; intravenous (bolus), 1 mg/kg): 7240 ± 890 ng·h/mL
- clearance ([3]; intravenous (bolus), 1 mg/kg): 2.31 ± 0.29 mL/min/kg
- half-life ([3]; intravenous (bolus), 1 mg/kg): 3.42 ± 0.29 h
- bioavailability ([3]; oral 3 mg/kg vs intravenous 1 mg/kg, read-out: F (%) Bioavailability): 60 ± 4%
- AUC(0-t) ([3]; oral (gavage), 3 mg/kg): 13000 ± 954 ng·h/mL
- Cmax ([3]; oral (gavage), 3 mg/kg): 1860 ± 185 ng/mL
- half-life ([3]; oral (gavage), 3 mg/kg): 3.74 ± 0.15 h
